16 compounds from patent publication US20230322747A1, “OXADIAZOLE HDAC6 INHIBITORS AND USES THEREOF” (Eikonizo Therapeutics, Inc., priority 2022, published 2023) can be followed below.

The target in assay [1] is Human HDAC6 (Homo sapiens (Human), UniProt Q9UBN7). Kind of assay: HDAC6 enzymatic activity assay (Caliper endpoint or fluorogenic format). Type of assay: biochemical. To be noted: for pIC50: in vitro enzymatic; for Selectivity (6 v 8) (fold): ratio of HDAC8 IC50/HDAC6 IC50.
Assay [2] concerns the target Human HDAC8 (Homo sapiens (Human), UniProt Q9BY41). Kind of assay: Caliper endpoint assay for HDAC8 enzymatic activity. Type of assay: biochemical. Conditions: in vitro enzymatic.

pIC50: −log10 of the molar value. Where only a bound is given, the exact number is not on record here.

Sequence of Human HDAC8 (Q9BY41 whole entry): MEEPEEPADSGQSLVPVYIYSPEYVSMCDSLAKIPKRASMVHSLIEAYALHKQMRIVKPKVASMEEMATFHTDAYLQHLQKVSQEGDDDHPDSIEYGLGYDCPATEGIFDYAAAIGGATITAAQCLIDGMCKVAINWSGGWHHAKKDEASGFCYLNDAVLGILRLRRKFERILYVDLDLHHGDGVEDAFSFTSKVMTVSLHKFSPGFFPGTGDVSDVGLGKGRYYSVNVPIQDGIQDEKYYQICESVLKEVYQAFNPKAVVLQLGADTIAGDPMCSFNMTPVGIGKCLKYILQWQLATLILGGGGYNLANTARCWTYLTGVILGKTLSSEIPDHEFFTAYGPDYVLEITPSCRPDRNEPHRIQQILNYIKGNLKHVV
Sequence of Human HDAC6 (Q9UBN7 whole entry): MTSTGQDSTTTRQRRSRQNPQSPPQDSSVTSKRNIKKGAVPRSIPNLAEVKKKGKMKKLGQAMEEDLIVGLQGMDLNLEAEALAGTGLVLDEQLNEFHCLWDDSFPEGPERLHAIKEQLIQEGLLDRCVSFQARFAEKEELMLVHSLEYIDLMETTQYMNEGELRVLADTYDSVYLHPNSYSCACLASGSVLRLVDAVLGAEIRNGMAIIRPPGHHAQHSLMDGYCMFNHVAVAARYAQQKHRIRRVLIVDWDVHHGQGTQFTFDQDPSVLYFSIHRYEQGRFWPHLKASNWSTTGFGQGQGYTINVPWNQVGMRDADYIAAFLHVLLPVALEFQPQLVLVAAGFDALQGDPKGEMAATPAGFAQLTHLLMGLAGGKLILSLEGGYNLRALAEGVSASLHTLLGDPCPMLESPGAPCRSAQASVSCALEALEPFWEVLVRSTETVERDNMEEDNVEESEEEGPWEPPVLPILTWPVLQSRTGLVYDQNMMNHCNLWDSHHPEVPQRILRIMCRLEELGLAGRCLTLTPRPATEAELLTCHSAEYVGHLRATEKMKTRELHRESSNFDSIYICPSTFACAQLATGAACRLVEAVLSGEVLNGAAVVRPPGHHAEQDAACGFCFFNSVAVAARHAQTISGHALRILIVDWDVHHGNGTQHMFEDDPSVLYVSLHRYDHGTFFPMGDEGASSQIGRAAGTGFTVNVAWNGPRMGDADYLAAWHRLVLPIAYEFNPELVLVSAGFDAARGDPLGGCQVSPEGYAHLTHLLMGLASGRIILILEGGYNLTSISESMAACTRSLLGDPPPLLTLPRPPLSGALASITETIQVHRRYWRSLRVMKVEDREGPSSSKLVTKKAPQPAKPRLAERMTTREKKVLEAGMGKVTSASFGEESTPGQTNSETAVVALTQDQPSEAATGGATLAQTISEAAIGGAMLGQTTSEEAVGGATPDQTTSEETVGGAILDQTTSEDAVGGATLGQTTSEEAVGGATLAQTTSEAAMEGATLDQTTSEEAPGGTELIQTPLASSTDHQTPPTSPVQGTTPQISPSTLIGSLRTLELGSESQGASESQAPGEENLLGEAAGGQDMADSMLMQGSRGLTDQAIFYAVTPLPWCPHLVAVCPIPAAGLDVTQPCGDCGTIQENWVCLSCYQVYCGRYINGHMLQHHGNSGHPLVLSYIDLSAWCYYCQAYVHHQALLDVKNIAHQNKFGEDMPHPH

Take `Fc1ccc(OCc2ccc(-c3nnc(C(F)F)o3)cn2)c(F)c1` [Compound 5, 2-(difluoromethyl)-5-(6-((2,4-difluorophenoxy)methyl)pyridin-3-yl)-1,3,4-oxadiazole]: in assay [1], the pIC50 is 7.00 to 9.00 and the “Selectivity (6 v 8) (fold)” value is given as “V (V: >1000)”. The pIC50 in assay [2] is below 4.00.
For `Fc1ccc(OCc2ccc(-c3nnc(C(F)F)o3)cn2)nc1` [Compound 76], in that order: 7.00 to 9.00, “V (V: >1000)” and below 4.00.
In the case of `FC(F)c1nnc(-c2ccc(COc3ccc4ccncc4c3)nc2)o1` [Compound 31], the results for the pIC50 in assay [1] and in assay [2] were 7.00 to 9.00 and 5.00 to 6.00, respectively. Besides, in assay [1], the “Selectivity (6 v 8) (fold)” value is listed as “IV (IV: >100-1000)”.
For `Cn1cnc2cc(OCc3ccc(-c4nnc(C(F)F)o4)cn3)ccc21` [Compound 57], in that order: 7.00 to 9.00, 4.00 to 5.00 and “IV (IV: >100-1000)”.
On to `Cc1cnccc1OCc1ccc(-c2nnc(C(F)F)o2)cn1` [Compound 75], for which, in assay [1], the pIC50 was 7.00 to 9.00 and the “Selectivity (6 v 8) (fold)” value is given as “IV (IV: >100-1000)”. Moreover, in assay [2], the pIC50 is 4.00 to 5.00.
As for `Fc1cccnc1OCc1ccc(-c2nnc(C(F)F)o2)cn1` [Compound 77, 2-(Difluoromethyl)-5-[6-[(3-fluoro-2-pyridyl)oxymethyl]-3-pyridyl]-1,3,4-oxadiazole], in assay [1], the pIC50 is 7.00 to 9.00 and the “Selectivity (6 v 8) (fold)” value is “V (V: >1000)”. Further, the pIC50 in assay [2] is below 4.00.
In the case of `N#CCc1ccc(OCc2ccc(-c3nnc(C(F)F)o3)cn2)cc1` [Compound 43], in assay [1], the pIC50 was 7.00 to 9.00 and the “Selectivity (6 v 8) (fold)” value is on record as “IV (IV: >100-1000)”. Besides, the pIC50 in assay [2] was 4.00 to 5.00.
In the same order, the values of `Fc1ccc(OCc2ncc(-c3nnc(C(F)F)o3)cc2F)cc1` [Compound 6, 2-(difluoromethyl)-5-(5-fluoro-6-((4-fluorophenoxy)methyl)pyridin-3-yl)-1,3,4-oxadiazole] are 7.00 to 9.00, “V (V: >1000)” and below 4.00.
For `Cn1nc(-c2nc3ccc(OCc4ccc(-c5nnc(C(F)F)o5)cn4)cc3o2)ccc1=O` [Compound 204], in that order: 7.00 to 9.00, “V (V: >1000)” and below 4.00.
For `NC(=O)c1ccc(OCc2ccc(-c3nnc(C(F)F)o3)cn2)cc1` [Compound 122, 4-((5-(5-(difluoromethyl)-1,3,4-oxadiazol-2-yl)pyridin-2-yl)methoxy)benzamide], in that order: below 4.00, “V (V: >1000)” and below 4.00.
As for `N#CCc1cccc(OCc2ccc(-c3nnc(C(F)F)o3)cn2)c1` [Compound 27], the values for the pIC50 in assay [1] and in assay [2] were 7.00 to 9.00 and below 4.00, respectively. Also, the “Selectivity (6 v 8) (fold)” value in assay [1] is recorded as “V (V: >1000)”.
For `N#Cc1cc(F)ccc1OCc1ccc(-c2nnc(C(F)F)o2)cn1` [Compound 45], in that order: 7.00 to 9.00, below 4.00 and “V (V: >1000)”.
On to `N#CCc1ccccc1OCc1ccc(-c2nnc(C(F)F)o2)cn1` [Compound 44], for which, in assay [1], the pIC50 is 7.00 to 9.00 and the “Selectivity (6 v 8) (fold)” value was “V (V: >1000)”. This compound also showed a pIC50 in assay [2] below 4.00.
For `FC(F)c1nnc(-c2ccc(COc3cncnc3)nc2)o1` [Compound 102], in that order: 7.00 to 9.00, “V (V: >1000)” and below 4.00.
For `FC(F)c1nnc(-c2ccc(COc3ccc4c(c3)ncn4CCN3CCCC3)nc2)o1` [Compound 209], in that order: 5.00 to 6.00, “III (III: >10-100)” and below 4.00.
In the case of `Cc1noc2cccc(OCc3ccc(-c4nnc(C(F)F)o4)cn3)c12` [Compound 60], in assay [1], the pIC50 is 7.00 to 9.00 and the “Selectivity (6 v 8) (fold)” value is “V (V: >1000)”. Moreover, the pIC50 in assay [2] is 4.00 to 5.00.

By pIC50 is commonly meant the negative decadic logarithm of the IC50, by convention in mol/L. A low value points to a large IC50.
